Values after ≈ are worked out from the molar mass of the structure shown. Where two headings read alike, the source gives them in different places. Positions of bridges follow the written chain, without caps; N, C: chain ends. Non-standard residues stand in square brackets, D forms with d. Residues, ends and D or L forms follow the SMILES beside them. S5 = C=CCCC[C@](C)(N)C(=O)O; PEG3 = NCCOCCOCCOCCC(=O)O
Experiments:
E. coli = format: cell-based, Escherichia coli
How it was run: (§1)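 Colonies are grown overnight at 37 °C, diluted and regrown 3-4 h. Bacteria in MHB or MHB II are then added to serial peptide dilutions to reach 5×10^5 CFU/ml. Plates are incubated 20-24 h at 37 °C and scored for the lowest concentration without visible growth.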

A. baumannii = format: cell-based, Acinetobacter baumannii
How it was run: as §1

P. aeruginosa = format: cell-based, Pseudomonas aeruginosa
How it was run: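 MIC taken as lowest peptide concentration with no visible growth after 20-24 h at 37 °C. Peptide serial dilutions from water stocks met P. aeruginosa inoculum (5×10^5 CFU/ml final) in MHB or MHB II, per a CLSI-adapted microbroth protocol.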

K. pneumoniae = format: cell-based, Klebsiella pneumoniae
How it was run: as §1

S. aureus = format: cell-based, Staphylococcus aureus
How it was run: as §1

in vitro [1] = format: cell-based; details: human
How it was run: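 LDH release (absorbance at 490 nm) measured in the media of cells treated with serially diluted StAMPs or vehicle at 37 °C: 90 min for renal RPTEC, 48 h for liver HepG2. Cells were seeded overnight beforehand and media refreshed before dosing.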

in vitro [2] = format: cell-based; details: human; remark: listed apart in the source
How it was run: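 Cytotoxicity read by CellTiter-Glo luminescence after 48 h at 37 °C exposure to serially diluted StAMPs or vehicle. HepG2 cells were grown in EMEM plus 10% FBS and given 4 h to attach before dosing; peptides came from a 5 mg/mL aqueous stock.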

[3] = Inhibitory Concentration at 50% Cytotoxicity (IC50) Human Liver Cells (HepG2)

Row | SMILES | Minimum Inhibitory Concentration (MIC) E. coli (E. coli) | Minimum Inhibitory Concentration (MIC) A. baumannii (A. baumannii) | Minimum Inhibitory Concentration (MIC) P. aeruginosa (P. aeruginosa) | Minimum Inhibitory Concentration (MIC) K. pneumoniae (K. pneumoniae) | Minimum Inhibitory Concentration (MIC) S. aureus (S. aureus) | IC50 at 90 min (in vitro [1]) | IC50 at 90 min (in vitro [1]; 90 minutes of incubation, read-out: Inhibitory Concentration at 50% Cytotoxicity (IC50) Human Renal Proximal Tubule Epithelial Cells (RPTEC)) | IC50 at 48 hours (in vitro [2]; 48 hours of incubation, read-out: Inhibitory Concentration at 50% Cytotoxicity (IC50) Human Liver Cells (HepG2)) | IC50 at 48 hours (in vitro [2]; [3])
1 | CC(C)[C@@H]1NC(=O)[C@@](C)(NC(=O)[C@H](C)NC(=O)[C@H](CCCCN)NC(=O)CNC(=O)[C@H](Cc2ccccc2)NC(=O)[C@H](CCCCN)NC(=O)[C@H](CCCCN)NC(=O)[C@H](CCCCN)NC(=O)[C@H](CCCCN)NC(=O)[C@H](CCCCN)NC(=O)[C@]2(C)CCCC=CCCC[C@](C)(NC(=O)CN)C(=O)NCC(=O)N[C@@H](CCCCN)C(=O)N[C@@H](Cc3ccccc3)C(=O)N2)CCCC=CCCC[C@@](C)(C(=O)N[C@@H](C)C(=O)N[C@@H](CCCCN)C(=O)N[C@@H](CCCCN)C(=O)NCC(=O)NCC(=O)N[C@@H](CCC(=O)O)C(N)=O)NC(=O)[C@H](CCC(=O)O)NC(=O)[C@@H](Cc2ccccc2)NC1=O [compound 34] (H-G[S5]GKF[S5]KKKKKFGKA[S5]V[dF]E[S5]AKKGGE-NH2; staple 2-6, 16-20) | 2 µg/mL | 2 µg/mL | 4 µg/mL | 2 µg/mL | >64 µg/mL |  | 96 µg/mL (≈ 33.1 µM) | 109 µg/mL (≈ 37.6 µM) | 
2 | CC(C)[C@@H]1NC(=O)[C@@](C)(NC(=O)[C@H](C)NC(=O)[C@H](CCCCN)NC(=O)CNC(=O)[C@H](Cc2c[nH]c3ccccc23)NC(=O)[C@H](CCCCN)NC(=O)[C@H](CCCCN)NC(=O)[C@H](CCCCN)NC(=O)[C@H](CO)NC(=O)[C@H](Cc2c[nH]cn2)NC(=O)[C@]2(C)CCCC=CCCC[C@](C)(NC(=O)CN)C(=O)NCC(=O)N[C@@H](CCCCN)C(=O)N[C@@H](Cc3ccccc3)C(=O)N2)CCCC=CCCC[C@@](C)(C(=O)N[C@@H](C)C(=O)N[C@@H](CCCCN)C(=O)N[C@@H](CCCCN)C(N)=O)NC(=O)[C@H](CCC(=O)O)NC(=O)CNC1=O [compound 68] (H-G[S5]GKF[S5]HSKKKWGKA[S5]VGE[S5]AKK-NH2; staple 2-6, 16-20) | 4 µg/mL | 4 µg/mL | 8 µg/mL | 16 µg/mL | >64 µg/mL | 117 µg/mL (≈ 45.5 µM) |  |  | 129 µg/mL (≈ 50.2 µM)
3 | CC(C)[C@@H]1NC(=O)[C@@](C)(NC(=O)[C@H](C)NC(=O)[C@H](CCCCN)NC(=O)CNC(=O)[C@H](Cc2ccccc2)NC(=O)[C@H](CCCCN)NC(=O)[C@H](CCCCN)NC(=O)[C@H](CCCCN)NC(=O)[C@H](CO)NC(=O)[C@H](Cc2c[nH]cn2)NC(=O)[C@]2(C)CCCC=CCCC[C@](C)(NC(=O)CN)C(=O)NCC(=O)N[C@@H](CCCCN)C(=O)N[C@@H](Cc3ccccc3)C(=O)N2)CCCC=CCCC[C@@](C)(C(=O)N[C@@H](C)C(=O)N[C@@H](CCCCN)C(=O)N[C@@H](CCCCN)C(N)=O)NC(=O)[C@H](CC(=O)O)NC(=O)CNC1=O [compound 16] (H-G[S5]GKF[S5]HSKKKFGKA[S5]VGD[S5]AKK-NH2; staple 2-6, 16-20) | 12 µg/mL | 4 µg/mL | 16 µg/mL | >64 µg/mL | >64 µg/mL | > 200 µg/mL |  |  | > 200 µg/mL
4 | CC(C)[C@@H]1NC(=O)[C@@](C)(NC(=O)[C@H](C)NC(=O)[C@H](CCCCN)NC(=O)CNC(=O)[C@H](Cc2ccccc2)NC(=O)[C@H](CCCCN)NC(=O)[C@H](CCCCN)NC(=O)[C@H](CCCCN)NC(=O)[C@H](CO)NC(=O)[C@H](Cc2c[nH]cn2)NC(=O)[C@]2(C)CCCC=CCCC[C@](C)(NC(=O)CN)C(=O)NCC(=O)N[C@@H](CCCCN)C(=O)N[C@@H](Cc3ccccc3)C(=O)N2)CCCC=CCCC[C@@](C)(C(=O)N[C@@H](C)C(=O)N[C@@H](CCCCN)C(=O)N[C@@H](CCCCN)C(N)=O)NC(=O)[C@H](CCC(=O)O)NC(=O)[C@H](Cc2ccc(O)cc2)NC1=O [compound 13] (H-G[S5]GKF[S5]HSKKKFGKA[S5]VYE[S5]AKK-NH2; staple 2-6, 16-20) | 3 µg/mL | 2 µg/mL | 4 µg/mL | 8 µg/mL | >64 µg/mL | > 200 µg/mL |  |  | > 200 µg/mL
5 | C[C@H](NC(=O)[C@H](CCCCN)NC(=O)CNC(=O)[C@H](Cc1ccccc1)NC(=O)[C@H](CCCCN)NC(=O)[C@H](CCCCN)NC(=O)[C@H](CCCCN)NC(=O)[C@H](CO)NC(=O)[C@H](Cc1c[nH]cn1)NC(=O)[C@]1(C)CCCC=CCCC[C@](C)(NC(=O)CN)C(=O)NCC(=O)N[C@@H](CCCCN)C(=O)N[C@@H](Cc2ccccc2)C(=O)N1)C(=O)N[C@@]1(C)CCCC=CCCC[C@@](C)(C(=O)N[C@@H](C)C(=O)N[C@@H](CCCCN)C(=O)N[C@@H](CCCCN)C(N)=O)NC(=O)[C@H](CCC(=O)O)NC(=O)CNC(=O)[C@H](Cc2c[nH]c3ccccc23)NC1=O [compound 64] (H-G[S5]GKF[S5]HSKKKFGKA[S5]WGE[S5]AKK-NH2; staple 2-6, 16-20) | 4 µg/mL | 4 µg/mL | 8 µg/mL | 32 µg/mL | 16 µg/mL | > 200 µg/mL |  |  | > 200 µg/mL

Second part, led by results:

Row | Minimum Inhibitory Concentration (MIC) E. coli (E. coli) | Minimum Inhibitory Concentration (MIC) A. baumannii (A. baumannii) | Minimum Inhibitory Concentration (MIC) P. aeruginosa (P. aeruginosa) | Minimum Inhibitory Concentration (MIC) K. pneumoniae (K. pneumoniae) | Minimum Inhibitory Concentration (MIC) S. aureus (S. aureus) | IC50 at 90 min (in vitro [1]) | SMILES | IC50 at 90 min (in vitro [1]; 90 minutes of incubation, read-out: Inhibitory Concentration at 50% Cytotoxicity (IC50) Human Renal Proximal Tubule Epithelial Cells (RPTEC)) | IC50 at 48 hours (in vitro [2]; 48 hours of incubation, read-out: Inhibitory Concentration at 50% Cytotoxicity (IC50) Human Liver Cells (HepG2)) | IC50 at 48 hours (in vitro [2]; [3])
6 | 2 µg/mL | 3 µg/mL | 3 µg/mL | 6 µg/mL | >64 µg/mL | 105 µg/mL (≈ 40.9 µM) | CC(C)[C@@H]1NC(=O)[C@@](C)(NC(=O)[C@H](C)NC(=O)[C@H](CCCCN)NC(=O)CNC(=O)[C@H](Cc2ccccc2)NC(=O)[C@H](CCCCN)NC(=O)[C@H](CCCCN)NC(=O)[C@H](CCCCN)NC(=O)[C@H](CCCCN)NC(=O)[C@H](CCCCN)NC(=O)[C@]2(C)CCCC=CCCC[C@](C)(NC(=O)CN)C(=O)NCC(=O)N[C@@H](CCCCN)C(=O)N[C@@H](Cc3ccccc3)C(=O)N2)CCCC=CCCC[C@@](C)(C(=O)N[C@@H](C)C(=O)N[C@@H](CCCCN)C(=O)N[C@@H](CCCCN)C(N)=O)NC(=O)[C@H](CCC(=O)O)NC(=O)CNC1=O [compound 4] (H-G[S5]GKF[S5]KKKKKFGKA[S5]VGE[S5]AKK-NH2; staple 2-6, 16-20) |  |  | 127 µg/mL (≈ 49.5 µM)
7 | 4 µg/mL | 4 µg/mL | 4 µg/mL | 4 µg/mL | >64 µg/mL | 100 µg/mL (≈ 42.3 µM) | CC(C)[C@@H]1NC(=O)[C@@](C)(NC(=O)[C@H](C)NC(=O)[C@H](CCCCN)NC(=O)CNC(=O)[C@H](Cc2ccccc2)NC(=O)[C@H](CCCCN)NC(=O)[C@H](CCCCN)NC(=O)[C@H](CCCCN)NC(=O)[C@H](CCCCN)NC(=O)[C@H](CCCCN)NC(=O)[C@]2(C)CCCC=CCCC[C@](C)(NC(=O)CN)C(=O)NCC(=O)N[C@@H](CCCCN)C(=O)N[C@@H](Cc3ccccc3)C(=O)N2)CCCC=CCCC[C@@](C)(C(=O)N[C@@H](CCCCN)C(N)=O)NC(=O)[C@H](CCC(=O)O)NC(=O)CNC1=O [compound 27] (H-G[S5]GKF[S5]KKKKKFGKA[S5]VGE[S5]K-NH2; staple 2-6, 16-20) |  |  | 117 µg/mL (≈ 49.5 µM)
8 | 2 µg/mL | 2 µg/mL | 4 µg/mL | 4 µg/mL | >64 µg/mL | 671 µg/mL (≈ 242 µM) | CC(C)[C@@H]1NC(=O)[C@@](C)(NC(=O)[C@H](C)NC(=O)[C@H](CCCCN)NC(=O)CNC(=O)[C@H](Cc2ccccc2)NC(=O)[C@H](CCCCN)NC(=O)[C@H](CCCCN)NC(=O)[C@H](CCCCN)NC(=O)[C@H](CCCCN)NC(=O)[C@H](CCCCN)NC(=O)[C@]2(C)CCCC=CCCC[C@](C)(NC(=O)CN)C(=O)NCC(=O)N[C@@H](CCCCN)C(=O)N[C@@H](Cc3ccccc3)C(=O)N2)CCCC=CCCC[C@@](C)(C(=O)N[C@@H](C)C(=O)N[C@@H](CCCCN)C(=O)N[C@@H](CCCCN)C(=O)NCCOCCOCCOCCC(N)=O)NC(=O)[C@H](CCC(=O)O)NC(=O)CNC1=O [compound 73] (H-G[S5]GKF[S5]KKKKKFGKA[S5]VGE[S5]AKK[PEG3]-NH2; staple 2-6, 16-20) |  |  | 407 µg/mL (≈ 147 µM)

— patent US20240174723A1, “STAPLED ANTIMICROBIAL PEPTIDES (STAMPS) AND USES THEREOF” (Lytica Therapeutics, Inc., priority 2021, published 2024)
